{"source": "paper PMC5218480", "about": "(PLoS ONE, 2017)", "system": "MV-4-11 cells", "experiment": "Gene expression microarray analysis (Affymetrix PrimeView) and GSEA", "assay_type": "cell-based, human", "parameters": "RFU PODN (11730768_x_at) / Fold change /veh PODN (11730768_x_at) / RFU LINC00158 (11744669_a_at) / Fold change /veh LINC00158 (11744669_a_at) / RFU DUSP10 (11751237_a_at) / Fold change /veh DUSP10 (11751237_a_at) / RFU ID3 (11757404_x_at) / Fold change /veh ID3 (11757404_x_at) / RFU PLEKHG5 (11737974_s_at) / Fold change /veh PLEKHG5 (11737974_s_at) / RFU LRRC4B (11730491_at) / Fold change /veh LRRC4B (11730491_at) / RFU GIMAP4 (11747438_a_at) / Fold change /veh GIMAP4 (11747438_a_at) / RFU KRT8 (11758183_x_at) / Fold change /veh KRT8 (11758183_x_at) / RFU CNN1 (11734310_a_at) / Fold change /veh CNN1 (11734310_a_at) / RFU VPS37D (11726825_at) / Fold change /veh VPS37D (11726825_at) / RFU C10orf10 (11716522_x_at) / Fold change /veh C10orf10 (11716522_x_at) / RFU KIR2DL2 /// KIR2DL4 /// KIR2DL5A /// KIR2DL5B /// KIR2DS1 /// KIR2DS2 /// KIR2DS3 /// KIR2DS4 /// KIR3DL3 /// KIR3DL3 /// KIR3DS1 (11738374_at) / Fold change /veh KIR2DL2 /// KIR2DL4 /// KIR2DL5A /// KIR2DL5B /// KIR2DS1 /// KIR2DS2 /// KIR2DS3 /// KIR2DS4 /// KIR3DL3 /// KIR3DL3 /// KIR3DS1 (11738374_at) / RFU C1QL1 (11718748_at) / Fold change /veh C1QL1 (11718748_at) / RFU TMPRSS4 (11747572_a_at) / Fold change /veh TMPRSS4 (11747572_a_at) / RFU HAMP (11756126_x_at) / Fold change /veh HAMP (11756126_x_at) / RFU RNFT2 (11725882_a_at) / Fold change /veh RNFT2 (11725882_a_at) / RFU NR4A2 (11747474_a_at) / Fold change /veh NR4A2 (11747474_a_at) / RFU ABCC12 (11746883_a_at) / Fold change /veh ABCC12 (11746883_a_at) / RFU TMEM136 (11760407_x_at) / Fold change /veh TMEM136 (11760407_x_at) / RFU CLDN22 /// WWC2 (11732394_at) / Fold change /veh CLDN22 /// WWC2 (11732394_at) / RFU HLA-DPB1 (11760878_x_at) / Fold change /veh HLA-DPB1 (11760878_x_at) / RFU SPINT1 (11716480_a_at) / Fold change /veh SPINT1 (11716480_a_at) / RFU GAP43 (11754022_s_at) / Fold change /veh GAP43 (11754022_s_at) / RFU A4GNT (11735810_at) / Fold change /veh A4GNT (11735810_at) / RFU PRB3 (11715151_x_at) / Fold change /veh PRB3 (11715151_x_at) / RFU TUBB4B (11761932_at) / Fold change /veh TUBB4B (11761932_at) / RFU CAPN14 (11732068_a_at) / Fold change /veh CAPN14 (11732068_a_at) / RFU TMCC2 (11721928_a_at) / Fold change /veh TMCC2 (11721928_a_at) / RFU IRGQ (11745062_a_at) / Fold change /veh IRGQ (11745062_a_at) / RFU FAM174B (11720279_a_at) / Fold change /veh FAM174B (11720279_a_at) / RFU TMPRSS4 (11748680_a_at) / Fold change /veh TMPRSS4 (11748680_a_at) / RFU FAM212B (11763350_a_at) / Fold change /veh FAM212B (11763350_a_at) / RFU PLEKHG5 (11743358_a_at) / Fold change /veh PLEKHG5 (11743358_a_at) / RFU ZSCAN30 (11745921_a_at) / Fold change /veh ZSCAN30 (11745921_a_at) / RFU CMKLR1 (11741424_a_at) / Fold change /veh CMKLR1 (11741424_a_at) / RFU LOC101060620 /// MAPK8IP1 (11723275_at) / Fold change /veh LOC101060620 /// MAPK8IP1 (11723275_at) / RFU SPTSSB (11747773_x_at) / Fold change /veh SPTSSB (11747773_x_at) / RFU PRSS12 (11739890_at) / Fold change /veh PRSS12 (11739890_at) / RFU BIN1 (11741810_x_at) / Fold change /veh BIN1 (11741810_x_at) / RFU WNT11 (11732464_a_at) / Fold change /veh WNT11 (11732464_a_at) / RFU C10orf10 (11716521_a_at) / Fold change /veh C10orf10 (11716521_a_at) / RFU C5orf56 (11738089_at) / Fold change /veh C5orf56 (11738089_at) / RFU CYB561 (11721691_x_at) / Fold change /veh CYB561 (11721691_x_at) / RFU ANKRD19P (11752326_a_at) / Fold change /veh ANKRD19P (11752326_a_at) / RFU OR2T12 /// OR2T33 /// OR2T8 (11738714_s_at) / Fold change /veh OR2T12 /// OR2T33 /// OR2T8 (11738714_s_at) / RFU VCAN (11748164_a_at) / Fold change /veh VCAN (11748164_a_at) / RFU JSRP1 (11732532_at) / Fold change /veh JSRP1 (11732532_at) / RFU KRTAP10-11 (11738290_x_at) / Fold change /veh KRTAP10-11 (11738290_x_at) / RFU MYO3A (11730013_a_at) / Fold change /veh MYO3A (11730013_a_at) / RFU EBF3 (11725865_a_at) / Fold change /veh EBF3 (11725865_a_at) / RFU CAMK2N1 (11719241_x_at) / Fold change /veh CAMK2N1 (11719241_x_at) / RFU C5orf56 (11738088_a_at) / Fold change /veh C5orf56 (11738088_a_at) / RFU OLFML3 (11715873_a_at) / Fold change /veh OLFML3 (11715873_a_at) / RFU LOC100653217 /// NTM (11731650_a_at) / Fold change /veh LOC100653217 /// NTM (11731650_a_at) / RFU MAPK11 (11762145_a_at) / Fold change /veh MAPK11 (11762145_a_at) / RFU FIZ1 (11724087_x_at) / Fold change /veh FIZ1 (11724087_x_at) / RFU OASL (11726364_x_at) / Fold change /veh OASL (11726364_x_at) / RFU SOX15 (11748057_x_at) / Fold change /veh SOX15 (11748057_x_at) / RFU CD79A (11719716_a_at) / Fold change /veh CD79A (11719716_a_at) / RFU HIST1H1D (11736915_at) / Fold change /veh HIST1H1D (11736915_at) / RFU CASKIN2 (11723855_a_at) / Fold change /veh CASKIN2 (11723855_a_at) / RFU LOC730098 (11760151_x_at) / Fold change /veh LOC730098 (11760151_x_at) / RFU OR4N2 (11742367_at) / Fold change /veh OR4N2 (11742367_at) / RFU PRRT2 (11749266_a_at) / Fold change /veh PRRT2 (11749266_a_at) / RFU SNX32 (11753110_a_at) / Fold change /veh SNX32 (11753110_a_at) / RFU CDHR5 (11726645_a_at) / Fold change /veh CDHR5 (11726645_a_at) / RFU RCAN1 (11760418_a_at) / Fold change /veh RCAN1 (11760418_a_at) / RFU FAM167A (11723789_a_at) / Fold change /veh FAM167A (11723789_a_at) / RFU FAM26E (11764081_at) / Fold change /veh FAM26E (11764081_at) / RFU ISYNA1 (11749810_s_at) / Fold change /veh ISYNA1 (11749810_s_at) / RFU ACY1 (11761880_at) / Fold change /veh ACY1 (11761880_at) / RFU 11764098_at / Fold change /veh 11764098_at / RFU SAMD14 (11745864_x_at) / Fold change /veh SAMD14 (11745864_x_at) / RFU NPB (11741838_a_at) / Fold change /veh NPB (11741838_a_at) / RFU TMPRSS6 (11731388_a_at) / Fold change /veh TMPRSS6 (11731388_a_at) / RFU KRTAP10-2 (11738614_at) / Fold change /veh KRTAP10-2 (11738614_at) / RFU ARHGAP8 /// PRR5-ARHGAP8 (11727945_x_at) / Fold change /veh ARHGAP8 /// PRR5-ARHGAP8 (11727945_x_at) / RFU KRTAP5-7 /// NADSYN1 (11734609_at) / Fold change /veh KRTAP5-7 /// NADSYN1 (11734609_at) / RFU RASL12 (11751679_a_at) / Fold change /veh RASL12 (11751679_a_at) / RFU CDKN2B (11736163_a_at) / Fold change /veh CDKN2B (11736163_a_at) / RFU PRF1 (11729649_at) / Fold change /veh PRF1 (11729649_at) / RFU, ZNF638 /// ZNF638-IT1 / Fold change vs veh, ZNF638 /// ZNF638-IT1 / RFU, PANK3 / Fold change vs veh, PANK3 / RFU, SH3YL1 / Fold change vs veh, SH3YL1 / RFU, ZEB2 / Fold change vs veh, ZEB2 / RFU, NRIP1 / Fold change vs veh, NRIP1 / RFU, PTTG1IP / Fold change vs veh, PTTG1IP / RFU, CAPN2 / Fold change vs veh, CAPN2 / RFU, MED14 / Fold change vs veh, MED14 / RFU, SNORA58 / Fold change vs veh, SNORA58 / RFU, C1orf63 / Fold change vs veh, C1orf63 / RFU, LRRFIP1 / Fold change vs veh, LRRFIP1 / RFU, NDUFAF7 / Fold change vs veh, NDUFAF7 / RFU, SLC12A2 / Fold change vs veh, SLC12A2 / RFU, IBTK / Fold change vs veh, IBTK / RFU, ESF1 / Fold change vs veh, ESF1 / Fold change vs veh, TMEM50B / RFU, TAOK1 / Fold change vs veh, TAOK1 / RFU, ACBD3 / Fold change vs veh, ACBD3 / RFU, TMA16 / Fold change vs veh, TMA16 / RFU, RWDD3 / Fold change vs veh, RWDD3 / RFU, BCAT1 / Fold change vs veh, BCAT1 / RFU, EDEM3 / Fold change vs veh, EDEM3 / RFU, TMEM33 / Fold change vs veh, TMEM33 / RFU, WDR75 / Fold change vs veh, WDR75 / RFU, AHCTF1 / Fold change vs veh, AHCTF1 / RFU, TFRC / Fold change vs veh, TFRC / RFU, ZDHHC17 / Fold change vs veh, ZDHHC17 / RFU, NOM1 / Fold change vs veh, NOM1 / RFU, ARL8B / Fold change vs veh, ARL8B / RFU, ZBTB11 / Fold change vs veh, ZBTB11 / RFU, TAMM41 / Fold change vs veh, TAMM41 / RFU, KIAA1704 /// LOC100996395 / Fold change vs veh, KIAA1704 /// LOC100996395 / RFU, ING1 / Fold change vs veh, ING1 / RFU, TRMT61B / Fold change vs veh, TRMT61B / RFU, FUBP3 / Fold change vs veh, FUBP3 / RFU, TP53 / Fold change vs veh, TP53 / RFU, TNKS2 / Fold change vs veh, TNKS2 / RFU, ZFP14 / Fold change vs veh, ZFP14 / RFU, ACTR2 / Fold change vs veh, ACTR2 / RFU, PPP3R1 / Fold change vs veh, PPP3R1 / RFU, PIK3R1 / Fold change vs veh, PIK3R1 / RFU, HNRNPA1 / Fold change vs veh, HNRNPA1 / RFU, RNF170 / Fold change vs veh, RNF170 / RFU, ZNF28 / Fold change vs veh, ZNF28 / RFU, RNGTT / Fold change vs veh, RNGTT / RFU, OGT / Fold change vs veh, OGT / RFU, BRD1 / Fold change vs veh, BRD1 / RFU, MARS / Fold change vs veh, MARS / RFU, ZNF655 / Fold change vs veh, ZNF655 / RFU, FAHD1 / Fold change vs veh, FAHD1 / RFU, BDP1 / Fold change vs veh, BDP1 / RFU, LRRCC1 / Fold change vs veh, LRRCC1 / RFU, ARID1A / Fold change vs veh, ARID1A / RFU, ZNF146 / Fold change vs veh, ZNF146 / RFU, ZNF330 / Fold change vs veh, ZNF330 / RFU, GPN3 / Fold change vs veh, GPN3 / RFU, C9orf123 / Fold change vs veh, C9orf123 / RFU, N4BP2L2 / Fold change vs veh, N4BP2L2 / RFU, ARFIP1 / Fold change vs veh, ARFIP1 / RFU, FAM179B / Fold change vs veh, FAM179B / RFU, BCL10 / Fold change vs veh, BCL10 / RFU, UHRF1BP1L / Fold change vs veh, UHRF1BP1L / RFU, BET1 / Fold change vs veh, BET1 / RFU, CNOT2 / Fold change vs veh, CNOT2 / RFU, ZNF268 / Fold change vs veh, ZNF268 / Fold change vs veh, ZNF507 / RFU, DGCR2 / Fold change vs veh, DGCR2 / RFU, WDSUB1 / Fold change vs veh, WDSUB1 / Fold change vs veh, HSP90B1 /// MIR3652 / RFU, ADSS / Fold change vs veh, ADSS / RFU, GK / Fold change vs veh, GK / RFU, ZNF148 / Fold change vs veh, ZNF148 / RFU, TAF9 / Fold change vs veh, TAF9 / RFU, SLC1A5 / Fold change vs veh, SLC1A5 / RFU, SLMO2 / Fold change vs veh, SLMO2 / RFU, ABCC4 / Fold change vs veh, ABCC4 / RFU, LOC101060439 /// RAP1B / Fold change vs veh, LOC101060439 /// RAP1B / RFU, RFX7 / Fold change vs veh, RFX7 / RFU, GTPBP10 / Fold change vs veh, GTPBP10 / RFU, CNEP1R1 / Fold change vs veh, CNEP1R1 / RFU, BIVM-ERCC5 /// ERCC5 / Fold change vs veh, BIVM-ERCC5 /// ERCC5 / RFU, ILF3 / Fold change vs veh, ILF3 / RFU 11762660_at / Fold change /veh 11762660_at / RFU VCAN (11757783_s_at) / Fold change /veh VCAN (11757783_s_at) / RFU DDX43 (11728927_at) / Fold change /veh DDX43 (11728927_at) / RFU KRT8 (11758188_x_at) / Fold change /veh KRT8 (11758188_x_at) / RFU NKD1 (11759106_at) / Fold change /veh NKD1 (11759106_at) / RFU SRD5A1 (11742802_a_at) / Fold change /veh SRD5A1 (11742802_a_at) / RFU TPSAB1 /// TPSB2 (11721975_s_at) / Fold change /veh TPSAB1 /// TPSB2 (11721975_s_at) / RFU GSTM3 (11746129_a_at) / Fold change /veh GSTM3 (11746129_a_at) / RFU IL23R (11737362_x_at) / Fold change /veh IL23R (11737362_x_at) / RFU TMEM51 (11727254_a_at) / Fold change /veh TMEM51 (11727254_a_at) / RFU PIWIL2 (11732686_x_at) / Fold change /veh PIWIL2 (11732686_x_at) / RFU ORM1 (11744905_x_at) / Fold change /veh ORM1 (11744905_x_at) / RFU CCDC152 (11743942_at) / Fold change /veh CCDC152 (11743942_at) / RFU ECM1 (11717891_a_at) / Fold change /veh ECM1 (11717891_a_at) / RFU IL23R (11748794_a_at) / Fold change /veh IL23R (11748794_a_at) / RFU TNFAIP8L3 (11732012_x_at) / Fold change /veh TNFAIP8L3 (11732012_x_at) / RFU MBOAT4 (11741988_at) / Fold change /veh MBOAT4 (11741988_at) / RFU 11764193_at / Fold change /veh 11764193_at / RFU TMEM53 (11763286_at) / Fold change /veh TMEM53 (11763286_at) / RFU MAGEB2 (11727129_at) / Fold change /veh MAGEB2 (11727129_at) / RFU TMEM200A (11744735_a_at) / Fold change /veh TMEM200A (11744735_a_at) / RFU CCDC152 (11751479_a_at) / Fold change /veh CCDC152 (11751479_a_at) / RFU FAM211A (11726209_a_at) / Fold change /veh FAM211A (11726209_a_at) / RFU RGS16 (11746705_a_at) / Fold change /veh RGS16 (11746705_a_at) / RFU VCAN (11755009_s_at) / Fold change /veh VCAN (11755009_s_at) / RFU RHOB (11743442_s_at) / Fold change /veh RHOB (11743442_s_at) / RFU RGS16 (11720943_a_at) / Fold change /veh RGS16 (11720943_a_at) / RFU RGS16 (11720944_at) / Fold change /veh RGS16 (11720944_at) / RFU, VPS4B / Fold change vs veh, VPS4B / RFU, CREB1 / Fold change vs veh, CREB1 / RFU, DNAJC13 / Fold change vs veh, DNAJC13 / RFU, GNAQ / Fold change vs veh, GNAQ / RFU, CDK5R1 / Fold change vs veh, CDK5R1 / RFU, ZRANB3 / Fold change vs veh, ZRANB3 / RFU, CUL4A / Fold change vs veh, CUL4A / RFU, CCNY / Fold change vs veh, CCNY / RFU, UFL1 / Fold change vs veh, UFL1 / RFU, COG3 / Fold change vs veh, COG3 / RFU, DIAPH2 / Fold change vs veh, DIAPH2 / RFU, SKA2 / Fold change vs veh, SKA2 / RFU, AFF3 / Fold change vs veh, AFF3 / RFU, LMF1 / Fold change vs veh, LMF1 / RFU, IPO11 / Fold change vs veh, IPO11 / RFU, DFFB / Fold change vs veh, DFFB / RFU, FOXP1 / Fold change vs veh, FOXP1 / RFU, CARD8 / Fold change vs veh, CARD8 / RFU, STRN3 / Fold change vs veh, STRN3 / RFU, ADK / Fold change vs veh, ADK / RFU, RASSF2 / Fold change vs veh, RASSF2 / RFU, WIPF1 / Fold change vs veh, WIPF1 / RFU, LARP1B / Fold change vs veh, LARP1B / RFU, RASA1 / Fold change vs veh, RASA1 / RFU, RB1 / Fold change vs veh, RB1 / RFU, PPFIA1 / Fold change vs veh, PPFIA1 / RFU, MAT2A / Fold change vs veh, MAT2A / RFU, CCT5 / Fold change vs veh, CCT5 / RFU, WDR92 / Fold change vs veh, WDR92 / RFU, CUX1 / Fold change vs veh, CUX1 / RFU, TTC7A / Fold change vs veh, TTC7A / RFU, TMEM135 / Fold change vs veh, TMEM135 / RFU, DEPTOR / Fold change vs veh, DEPTOR / RFU, CPM / Fold change vs veh, CPM / RFU, DNAJB6 / Fold change vs veh, DNAJB6 / RFU, CACNA2D3 / Fold change vs veh, CACNA2D3 / RFU, DTX4 / Fold change vs veh, DTX4 / RFU, TFCP2 / Fold change vs veh, TFCP2 / RFU, GMCL1 /// GMCL1P1 / Fold change vs veh, GMCL1 /// GMCL1P1 / RFU, AEBP2 / Fold change vs veh, AEBP2 / RFU, SNHG1 /// SNORD22 /// SNORD25 /// SNORD26 /// SNORD27 /// SNORD28 /// SNORD29 /// SNORD31 / Fold change vs veh, SNHG1 /// SNORD22 /// SNORD25 /// SNORD26 /// SNORD27 /// SNORD28 /// SNORD29 /// SNORD31 / Fold change (Aza/veh), C12orf56 (ProbeSet 11735607_a_at) / Fold change (ACY-1035/veh), C12orf56 (ProbeSet 11735607_a_at) / Fold change (Aza/veh), FGFR1OP (ProbeSet 11751329_s_at) / Fold change (ACY-1035/veh), FGFR1OP (ProbeSet 11751329_s_at) / Fold change (Aza/veh), VPS36 (ProbeSet 11739960_a_at) / Fold change (ACY-1035/veh), VPS36 (ProbeSet 11739960_a_at) / RFU SYPL1 (11715823_x_at) / Fold change /veh SYPL1 (11715823_x_at) / RFU IGFBP7 (11715501_s_at) / Fold change /veh IGFBP7 (11715501_s_at) / RFU REEP3 (11722064_at) / Fold change /veh REEP3 (11722064_at) / RFU IGLL1 (11728026_x_at) / Fold change /veh IGLL1 (11728026_x_at): dose or concentration left out as unconfirmed", "conditions": "MV-4-11 cells, 48 hours", "data": [{"smiles": "Nc1ncn([C@@H]2O[C@H](CO)[C@@H](O)[C@H]2O)c(=O)n1", "note": "[azacitidine]", "values": [{"measurement": "RFU KRTAP10-2 (11738614_at)", "result": 10.93, "unit": "RFU"}]}]}
